Data taken from patent publication US20080207692A1, “Stabilized and preserved ketoifen ophthalmic compositions” (priority 2005, published 2008).

Legend:
Assay type in all cases: physicochemical
[1] = Stability of ketotifen-perborate formulations filled in polypropylene bottles and stored at 55° C.; details: stored at 55° C., Table 2 formulations
Procedure: The stability of the formulations shown in Table 1 are evaluated by filling the formulations in bottles and storing the formulations at 55° C. for various times.

[2] = Hot stability: formulations heated at 100° C. for 24 hours
[3] = Compatibility of ketotifen with low concentrations of hydrogen peroxide

For `CN1CCC(=C2c3ccccc3CC(=O)c3sccc32)CC1` [ketotifen], the “Stability of ketotifen (in words)” value [1] was “stable”, the “Stability of ketotifen (in words)” value [2] was “stable” and the “Compatibility with low concentrations of hydrogen peroxide” value ([3]; formulated at a pH lower than neutral pH) was “compatible”. The “Compatibility with low concentrations of hydrogen peroxide” value ([3]; formulated at neutral pH, i.e., a pH of about 7) was “not compatible”.
